Where “and” joins values, the source holds several entries; their conditions need not be identical. Identical values can stand only once.
Each compound was assayed on GO2Q alone (assay: GTPγS binding assay, control COS7 membranes expressing GO2Q alone (Ct-GO2Q)). Conditions: not given.
Assay type: biochemical
Method: (§1) In order identify the ligands for GPR139 two improvements in the detection assay were made to allow for the ligands to be detected. First, we chose to use a GTPγS binding assay instead of using live cultured cells. The GTPγS binding assay is a cell free system that uses the cell membrane of the cell(s) of interest rather than the live cell(s). One advantage of this assay is that potential ligands present in the cell culture media are washed away when the cell membrane is prepared. This reduces the basal level of signal and increase the chance of detecting receptor ligands when assessing compounds that activate the receptor. Second, a GO2Q chimeric G-protein was created to be co-expressed with GPR139 in order to increase the signal-to-noise ratio in the GTPγS binding assay. Historically, the Gi, Go coupled GPCRs offer much greater signal-to-noise ratio in GTPγS binding studies. For Gs and Gq coupled GPCRs, although ligand-stimulated specific signals can be detected in a GTPγS binding assay, the signal-to-noise ratios are often very small. To address this a chimeric GO2-Gq chimeric G-protein, GO2Q, with the N-terminus from Go2 protein and the C-terminus from Gq protein.
(§2) To test for compounds that activate GPR139, different amino acids and their derivatives (Table 2) were tested as ligands in the GTPγS binding assay using cell membranes from COS7 cells co-expressing GPR139 and GO2Q. Cell membrane from COS7 cells expressing GO2Q alone or co-expressing other GPCRs were also tested in GTPγS binding assay in parallel as controls. Each compound was tested in triplicate.

Compound | Activation levels (GTPγS binding), Ct-GO2Q
N=C(N)NCCC[C@H](N)C(=O)O [Arg] | 2171 and 2131 and 2255

Same assay, conditions: 1 mM final concentration; COS7 membranes expressing GO2Q alone; single wells of triplicate

Activation levels (GTPγS binding), Ct-GO2Q | Compound
1903 and 2049 and 2139 | C[C@H](N)C(=O)O [Ala]
2195 and 2142 and 2133 | NC(=O)C[C@H](N)C(=O)O [Asn]
2177 and 2137 and 2132 | N[C@@H](CC(=O)O)C(=O)O [Asp]
1928 and 2132 and 2114 | N[C@@H](CS)C(=O)O [Cys]
2242 and 2310 and 2311 | N[C@@H](CCC(=O)O)C(=O)O [Glu]
1936 and 2133 and 2289 | NCC(=O)O [Gly]
2186 and 2204 and 2199 | NCCc1c[nH]cn1 [HA, histamine]
2166 and 2152 and 2189 | O=C(O)[C@@H]1C[C@@H](O)CN1 [HO-Pro]
2266 and 2222 and 2253 | CC[C@H](C)[C@H](N)C(=O)O [Ile]
2194 and 2213 and 2167 | CC(C)C[C@H](N)C(=O)O [Leu]
2256 and 2235 and 2329 | O=C(O)[C@@H]1CCCN1 [Pro]
2192 and 2191 and 2186 | N[C@@H](Cc1ccc(O)cc1)C(=O)O [Tyr]

Further lines, the compound ahead of its results:

Compound | Activation levels (GTPγS binding), Ct-GO2Q
N[C@@H](CSSC[C@H](N)C(=O)O)C(=O)O [Cystine] | 2242 and 2149 and 2229
NCCc1ccc(O)c(O)c1 [DA] | 2250 and 2213 and 2319
NC(=O)CC[C@H](N)C(=O)O [Gln] | 2181 and 2327 and 2336
N[C@@H](Cc1c[nH]cn1)C(=O)O [His] | 2308 and 2259 and 2197
NCCCC[C@H](N)C(=O)O [Lys] | 2400 and 2138 and 2041
CSCC[C@H](N)C(=O)O [Met] | 2173 and 2307 and 2276
NCC(O)c1ccc(O)cc1 (stereo not drawn) [Octopamine] | 2087 and 2140 and 2142
N[C@@H](CO)C(=O)O [Ser] | 1975 and 2036 and 2164
NCCc1c[nH]c2ccc(O)cc12 [Seretonin] | 2356 and 2154 and 2332
C[C@@H](O)[C@H](N)C(=O)O [Thr] | 2210 and 2213 and 2008
NCCc1ccc(O)cc1 [Tyramine] | 2132 and 2277 and 2369
CC(C)[C@H](N)C(=O)O [Val] | 2072 and 2083 and 1977

The compounds below were run against T1, GPR139 (Homo sapiens, UniProt Q6DWJ6) (assay: GTPγS binding dose response study, human GPR139 co-transfected with GO2Q into COS7 cells). Conditions: human GPR139, FIG. 2A and 2B.
T1 sequence (Q6DWJ6 1-353): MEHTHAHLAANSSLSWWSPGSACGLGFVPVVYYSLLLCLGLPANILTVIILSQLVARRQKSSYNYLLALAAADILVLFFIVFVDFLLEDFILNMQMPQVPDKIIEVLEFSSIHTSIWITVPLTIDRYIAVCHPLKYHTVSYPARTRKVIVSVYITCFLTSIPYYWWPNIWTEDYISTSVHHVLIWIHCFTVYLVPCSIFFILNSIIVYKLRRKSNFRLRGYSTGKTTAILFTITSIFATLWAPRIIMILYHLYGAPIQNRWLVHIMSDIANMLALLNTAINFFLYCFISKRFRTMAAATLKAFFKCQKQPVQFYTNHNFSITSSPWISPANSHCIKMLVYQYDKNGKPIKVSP
Assay type: biochemical
Parameters: expressed in transfected cells; host or cells: COS7 (membranes)
Text: (§3) FIG. 2-FIG. 2F: Tryptophan, phenylalanine, and their derivatives activate GPR139. Human (FIG. 2A and FIG. 2B) or mouse (FIG. 2C and FIG. 2D) GPR139 were co-transfected with chimeric G-protein GO2Q into COS7 cells. Cell membranes from transfected cells were used in GTPγS binding studies using various ligands at different concentrations to stimulate GPR139. FIG. 2E and FIG. 2F show control experiments in the dose response studies of Example 1.

Compound | Dose-responsive activation of GPR139 (GTPγS binding)
Cn1cc(C[C@@H](N)C(=O)O)c2ccccc21 [1-methy-D-Try, 1-methyl-D-Trp] | specifically activate GPR139 in a dose-responsive manner
Cn1cc(C[C@H](N)C(=O)O)c2ccccc21 [1-methy-L-Trp, 1-methyl-L-Trp] | specifically activate GPR139 in a dose-responsive manner
N[C@H](Cc1ccccc1)C(=O)O [D-Phe, D-phenylalanine] | specifically activate GPR139 in a dose-responsive manner
N[C@H](Cc1c[nH]c2ccccc12)C(=O)O [D-Trp, D-tryptophan] | specifically activate GPR139 in a dose-responsive manner

These compounds were tested against T2, mouse GPR139 (Mus musculus, UniProt Q80UC8) (assay: GTPγS binding dose response study, mouse GPR139 co-transfected with GO2Q into COS7 cells). Conditions: mouse GPR139, FIG. 2C and 2D.
T2 construct: expressed in transfected cells; host or cells: COS7 (membranes)
T2 sequence (Q80UC8 1-345): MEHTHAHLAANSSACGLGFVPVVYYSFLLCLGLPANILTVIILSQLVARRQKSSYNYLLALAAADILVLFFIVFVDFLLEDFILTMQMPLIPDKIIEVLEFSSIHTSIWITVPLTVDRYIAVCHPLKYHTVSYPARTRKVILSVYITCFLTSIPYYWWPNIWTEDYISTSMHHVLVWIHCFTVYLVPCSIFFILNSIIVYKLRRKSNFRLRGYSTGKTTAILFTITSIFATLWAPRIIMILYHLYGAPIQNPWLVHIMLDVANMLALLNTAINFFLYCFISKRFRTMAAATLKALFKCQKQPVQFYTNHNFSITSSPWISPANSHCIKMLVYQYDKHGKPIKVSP
Assay type: biochemical
Text: as §3

Compound | Dose-responsive activation of GPR139 (GTPγS binding)
Cn1cc(C[C@@H](N)C(=O)O)c2ccccc21 [1-methy-D-Try, 1-methyl-D-Trp] | specifically activate GPR139 in a dose-responsive manner
Cn1cc(C[C@H](N)C(=O)O)c2ccccc21 [1-methy-L-Trp, 1-methyl-L-Trp] | specifically activate GPR139 in a dose-responsive manner
N[C@H](Cc1ccccc1)C(=O)O [D-Phe, D-phenylalanine] | specifically activate GPR139 in a dose-responsive manner
N[C@H](Cc1c[nH]c2ccccc12)C(=O)O [D-Trp, D-tryptophan] | specifically activate GPR139 in a dose-responsive manner

What follows are compounds tested against T1, GPR139 (assay: GTPγS binding assay, single-concentration screen, COS7 membranes co-expressing GPR139 and GO2Q). Conditions: 1 mM final concentration; COS7 membranes co-expressing GPR139 and GO2Q; single wells of triplicate.
Assay type: biochemical
Parameters: expressed in transfected cells; host or cells: COS7 (membranes)
Method: as §1, §2

Activation levels of GPR139 (GTPγS binding), GPR139-GO2Q | Compound
2363 and 2348 and 2439 | C[C@H](N)C(=O)O [Ala]
2806 and 2483 and 2547 | NC(=O)C[C@H](N)C(=O)O [Asn]
2758 and 2922 and 2925 | N[C@@H](CC(=O)O)C(=O)O [Asp]
2168 and 2458 and 2336 | N[C@@H](CS)C(=O)O [Cys]
2847 and 2837 and 2841 | N[C@@H](CCC(=O)O)C(=O)O [Glu]
2560 and 2505 and 2414 | NCC(=O)O [Gly]
2737 and 2863 and 2899 | NCCc1c[nH]cn1 [HA, histamine]
2825 and 2797 and 3109 | O=C(O)[C@@H]1C[C@@H](O)CN1 [HO-Pro]
2760 and 2542 and 2903 | CC[C@H](C)[C@H](N)C(=O)O [Ile]
2621 and 2544 and 2437 | CC(C)C[C@H](N)C(=O)O [Leu]
2719 and 2657 and 2786 | O=C(O)[C@@H]1CCCN1 [Pro]
2752 and 2715 and 2921 | N[C@@H](Cc1ccc(O)cc1)C(=O)O [Tyr]

More lines, now with the values behind:

Compound | Activation levels of GPR139 (GTPγS binding), GPR139-GO2Q
N=C(N)NCCC[C@H](N)C(=O)O [Arg] | 2806 and 2783 and 2528
N[C@@H](CSSC[C@H](N)C(=O)O)C(=O)O [Cystine] | 2501 and 2652 and 2258
NCCc1ccc(O)c(O)c1 [DA] | 2688 and 2825 and 2708
NC(=O)CC[C@H](N)C(=O)O [Gln] | 2583 and 2525 and 2766
N[C@@H](Cc1c[nH]cn1)C(=O)O [His] | 2640 and 2499
NCCCC[C@H](N)C(=O)O [Lys] | 2433 and 2617 and 2589
CSCC[C@H](N)C(=O)O [Met] | 2657 and 2829 and 2802
NCC(O)c1ccc(O)cc1 (stereo not drawn) [Octopamine] | 2554 and 2675 and 2831
N[C@@H](CO)C(=O)O [Ser] | 2605 and 2458 and 2545
NCCc1c[nH]c2ccc(O)cc12 [Seretonin] | 2839 and 2852 and 2920
C[C@@H](O)[C@H](N)C(=O)O [Thr] | 2547 and 2507 and 2558
NCCc1ccc(O)cc1 [Tyramine] | 2883 and 2932 and 2873
CC(C)[C@H](N)C(=O)O [Val] | 2632 and 2689 and 2533

Each compound was assayed against T1, GPR139 (assay: Calcium mobilization assay (FLIPR), GPR139 expressed in HEK293 cells). Conditions: similar to GTPγS binding studies.
Assay type: cell-based
Parameters: expressed in transfected cells; host or cells: HEK293 (transient)
Method: FIG. 3A and FIG. 3B: Provides the results of experiments conducted to determine whether Trp and its derivatives (FIG. 3A) and Phe and its derivatives (FIG. 3B) stimulate Ca^2+ mobilization in HEK293 cells expressing GPR139.
The active compounds were also tested in a calcium mobilization assay (FLIPR® assay). For these experiments human GPR139 was transiently expressed in HEK293 cells and calcium mobilization was stimulated using L-Trp, L-Phe or their derivatives. […] The concentrations of L-Trp and L-Phe in many cell culture media (for instance DMEM is about 80 μM and 750 μM respectively) are close to the EC50 values of L-Trp and L-Phe for GPR139. […] This may explain why GPR139 appeared constitutively active when recombinantly expressed in mammalian cells.
About 300 additional phenylalanine analogues have been tested for GPR139 activation using a calcium mobilization (FLIPR®) assay. The results of these experiments indicate that many of these analogues can also activate GPR139. Table 4 lists certain phenylalanine analogues that have been determined to activate GPR139 by calcium mobilization at a concentration of 300 μM (calcium mobilization is expressed as percentage of that observed for L-phenylalanine).

Compound | Potency in calcium mobilization relative to L-Trp and L-Phe
Cn1cc(C[C@@H](N)C(=O)O)c2ccccc21 [1-methy-D-Try, 1-methyl-D-Trp] | higher potencies
Cn1cc(C[C@H](N)C(=O)O)c2ccccc21 [1-methy-L-Trp, 1-methyl-L-Trp] | higher potencies
